Article PMC4840416, “Constructing and Validating High-Performance MIEC-SVM Models in Virtual Screening for Kinases: A Better Way for Actives Discovery” (Scientific Reports, 2016)

biological target: T1, recombinant human ALK protein (Homo sapiens, UniProt Q9UM73); assay: LanthaScreen TR-FRET in vitro inhibitory activity assay of ALK; assay type: biochemical; settings: TR-FRET, 5 μM ATP, 1 hour at room temperature
T1 construct: purchased Life Technologies Inc. PV3867
Description: All reagents and anhydrous solvents were obtained from commercial sources and used as received. The positive control inhibitors of ALK, crizotinib and ceritinib, were purchased from Bangshunda Technology and Selleck Chemicals, respectively. The compounds were dissolved in 100% dimethyl sulfoxide (DMSO) as a 10 mM stock solution. The final DMSO concentration in each reaction was less than 1%. Purified recombinant human ALK protein (Catalog number: PV3867) as well as reagents for TR-FRET assay, including Lantha Screen™ Tb-PY20 (Catalog number: PV3552), Fluorescein-Poly GT (Catalog number: PV3610), ATP (Catalog number: PV3227), Kinase Quench Buffer (Catalog number: P2832), Kinase Buffer (Catalog number: PV3189), and Antibody Dilution Buffer (Catalog number: PV3574), were all obtained from Life Technologies Inc.
Lantha Screen™ kinase assay based on TR-FRET technology was used to measure the inhibitory activity of the screened compounds. All the assays were carried out in 384-well plate format. The 4 × test compounds were firstly prepared before the enzyme reaction starts. The 4 × recombinant human ALK protein and 2 × Substrate/ATP mixture were separately prepared in 50 mM HEPES (pH = 7.5), 0.01% BRIJ-35, 10 mM MgCl2, 4 mM MnCl2, 1 mM EGTA, and 2 mM DTT. The final 10 μL kinase reaction consists of 5 μL 1 × Substrate/ATP mixture (0.2 μM substrate and 5 μM ATP), 2.5 μL ALK (5 ng/ml ALK protein), and 2.5 μL 1 × test compounds with desired concentration. The assay plate was shook on a plate shaker for 30 seconds to mix the reactions thoroughly. After 1 hour kinase reaction incubation at room temperature (20 ~ 25 °C), 10 μL of pre-prepared 20 mM EDTA and 4 nM Tb-labeled antibody solution was then added to terminate the kinase reactions and to initiate antibody binding, and the assay plate was incubated for another 1 hour at room temperature. Then, the assay plate was placed into a fluorescence plate reader (BioTek Synergy™ 4) to measure both fluoresce in and terbium emission signals (excitation: 340 nm; emission: 520 and 495 nm, respectively) with 100 μs delay time and 200 μs integration time. To determine the IC50 values, the resulted inhibitory activity calculated from TR-FRET emission ratio (i.e. fluoresce in emission intensity/terbium emission intensity) was plotted against the concentration of inhibitor, and the data was fitted to a dose-response curve with a variable slop.

T1 sequence (Q9UM73 1058-1620 limits assumed): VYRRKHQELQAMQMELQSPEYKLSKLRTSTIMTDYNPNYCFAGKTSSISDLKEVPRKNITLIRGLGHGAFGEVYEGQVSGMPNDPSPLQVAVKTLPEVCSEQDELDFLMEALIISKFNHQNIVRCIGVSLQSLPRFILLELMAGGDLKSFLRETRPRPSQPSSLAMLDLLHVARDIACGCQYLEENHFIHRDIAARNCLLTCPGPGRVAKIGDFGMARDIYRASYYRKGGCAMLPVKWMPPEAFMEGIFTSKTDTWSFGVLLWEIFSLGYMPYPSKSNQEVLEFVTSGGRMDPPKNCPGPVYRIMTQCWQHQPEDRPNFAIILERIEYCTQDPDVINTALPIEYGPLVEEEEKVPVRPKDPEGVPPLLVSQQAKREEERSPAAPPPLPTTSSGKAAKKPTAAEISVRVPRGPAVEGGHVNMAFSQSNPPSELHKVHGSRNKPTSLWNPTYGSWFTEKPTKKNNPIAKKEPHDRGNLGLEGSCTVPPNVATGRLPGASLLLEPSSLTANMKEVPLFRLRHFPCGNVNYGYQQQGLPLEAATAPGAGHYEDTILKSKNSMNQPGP

SMILES	IC50 [nM]
Cc1ccc(N2C(=O)C(=Cc3ccc(C)s3)C(=O)N(c3ccc(C)cc3C)C2=S)c(C)c1 [Compound M3]	515
Cc1ccc(C)c(N2CCN(C3CC(=O)N(c4ccc(N5C(=O)CC(N6CCN(c7cc(C)ccc7C)CC6)C5=O)cc4)C3=O)CC2)c1 (stereo not shown) [Compound A3]	1540
Cc1c(C=C2C(=O)N(C)C(=S)N(C)C2=O)c2ccccc2n1Cc1ccccc1 [Compound M9]	18200
O=C(CN1C(=O)C(=NNC(=O)c2ccc(NC(=O)c3ccccc3)cc2)c2ccccc21)Nc1ccccc1 [Compound A2]	832

same assay, conditions: compound at 2ug/ml

SMILES	Averaged Enzymatic Inhibition @ 2ug/ml (%)
C(=N\Nc1nnc(-c2ccccc2)c(-c2ccccc2)n1)/c1c2ccccc2cc2ccccc12 [AK-968/11200121]	-0.805
CC1=C(C(=O)Nc2ccccc2)C(c2ccccc2)n2c(s/c(=C/C=C\c3ccccc3)c2=O)=N1 (stereo not shown) [AG-690/37079179]	15.845
Cc1cc(C)c2oc(-c3ccc(C)c(NC(=O)C(c4ccccc4)c4ccccc4)c3)nc2c1 [AN-465/13859038]	40.815
CCc1ccc2[nH]c3nc(N/N=C/c4ccc(-c5cccc(C(F)(F)F)c5)o4)nnc3c2c1 [AN-655/15262058]	11.82
N#Cc1c(N)nc2sc(C(=O)Nc3ccccc3)c(N)c2c1-c1cccs1 [AN-512/12594125]	10.48
CC(C)N(C(=O)Cn1c(/C=C/c2ccccc2)nc2ccccc21)c1ccccc1 [AF-399/15335536]	5.725
O=C1c2cccc3cccc(c23)C(=O)N1CC1CCN(S(=O)(=O)/C=C/c2ccccc2)CC1 [AF-399/14864072]	-20.25
N#Cc1c(N)nc2sc(C(=O)Nc3ccc(Cl)cc3)c(N)c2c1-c1cccs1 [AN-848/43256373]	-5
c1ccc(CSc2nnc3c(n2)OC(c2c4ccccc4cc4ccccc24)Nc2ccccc2-3)cc1 (stereo not shown) [AN-655/13300050]	23.865
C/C(=N\Nc1nc(-c2ccc(F)cc2)cs1)c1nonc1C [AN-648/40740338]	23.375
Cc1ccccc1-c1nnc(-c2ccc(-c3ccccc3)cc2)n1-c1ccccc1 [AG-690/33068064]	4.62
CCOc1cc(/C=N\NC(=O)CCc2ccccc2)ccc1OC(=O)/C=C/c1ccccc1 [AH-487/37011044]	-17.16
c1ccc(-c2oc3ncn4nc(COc5cccc6ccccc56)nc4c3c2-c2ccccc2)cc1 [AE-848/12917024]	13.565
C=CCN(C(=O)c1ccc2nc(-c3ccccc3)c(-c3ccccc3)nc2c1)c1ccccc1 [AG-205/36717014]	19.28
Cc1cc(C)c2c(c1)c(-c1ccccc1)c(-c1ccccc1)n2CC(O)CNCc1ccccc1 (stereo not shown) [AF-399/15128108]	-21.105
O=c1oc2ccccc2cc1-c1nnc(NC2CCCCC2)s1 [AQ-968/42007731]	-5.865
Nc1nc(Nc2cccc(Cl)c2)sc1C(=O)C12CC3CC(CC(C3)C1)C2 [AM-807/12426163]	5.915
Cc1cccc(N(CC(=O)N/N=C/c2cccc(Br)c2)S(=O)(=O)c2ccccc2)c1C [AH-487/40936079]	0.44
Cc1ccc(NC(=O)c2ccc(-c3ccccc3)cc2)c(OC(=O)c2ccc(-c3ccccc3)cc2)c1 [AG-690/09396003]	3.685
Cc1ccc(-c2nc(N3CC4(C)CC3CC(C)(C)C4)c3ccccc3n2)cc1 (stereo not shown) [AE-641/40974923]	13.995

SMILES	Averaged Enzymatic Inhibition @ 2ug/ml (%)
Cc1ccc(-c2cc(-c3c(-c4ccccc4)c4cc(Cl)ccc4[nH]c3=O)nc3ccccc23)cc1 [AG-690/12134081]	10.575
Cc1cccc(C)c1OCC(O)CN1CCC(CN2C(=O)c3cccc4cccc(c34)C2=O)CC1 (stereo not shown) [AF-399/14388040]	-20.41
O=C(COc1ccccc1-c1cnn(-c2ccccc2)c1)N/N=C/c1cc2ccccc2nc1Cl [AN-829/42007480]	2.755
Cc1ccccc1NC(=O)c1sc2nc(N)c(C#N)c(-c3ccc(C(C)C)cc3)c2c1N [AE-848/15116597]	8.9
CCCn1c(=O)c(C(=O)NNS(=O)(=O)c2ccc(Br)cc2)c(O)c2ccccc21 [AG-690/11765341]	9.265
Cc1cc(C)c2c(c1)c(-c1ccccc1)c(-c1ccccc1)n2CC(O)CNc1ccc(C(C)C)cc1 (stereo not shown) [AF-399/15128126]	32.1
O=C(CC1(O)C(=O)N(CCc2ccccc2)c2ccccc21)c1ccc2c(c1)OCCO2 (stereo not shown) [AK-778/41314821]	-1.935
CCOC(=O)c1c(/N=C(/Nc2ccccc2-c2ccccc2)c2ccccc2)sc2c1CCCC2 [AG-690/40750112]	16.665
Cc1cc(C)c2oc(-c3cccc(NC(=O)COc4cc(Cl)c(Cl)cc4Cl)c3C)nc2c1 [AN-465/40934866]	2.22
OC(CNCCc1ccccc1)Cn1c(-c2ccccc2)c(-c2ccccc2)c2ccc3ccccc3c21 (stereo not shown) [AF-399/15128092]	-33.405
Cc1ccc(S(=O)(=O)N(Cc2n[nH]c(=S)n2-c2ccccc2)c2cccc(Cl)c2)cc1 [AG-690/40751357]	8.965
c1ccc2c(c1)Oc1ccccc1C2=C1c2ccccc2Oc2ccccc21 [AG-690/36541063]	11.335
Cc1c(C=C2C(=O)N(C)C(=S)N(C)C2=O)c2ccccc2n1Cc1ccccc1 [Compound M9]	37.24
Cc1ccccc1NC(=O)c1cc2ccccc2c(C=Nc2ccccc2Cl)c1O [AG-664/32341038]	6.53
CCC1CCc2c(sc(NC(=O)c3c(-c4c(Cl)cccc4Cl)noc3C)c2C(N)=O)C1 (stereo not shown) [AK-968/12265292]	-4.47
O=C1OC(c2ccccc2Cl)=N/C1=C\c1ccc(OCc2ccccc2)cc1OCc1ccccc1 [AK-968/37055166]	-8.735
O=C(c1cccc(S(=O)(=O)NC2CCCCCC2)c1)c1cccc(S(=O)(=O)NC2CCCCCC2)c1 [AP-866/40876225]	9.84
Cc1cccc(N=c2sc(C3=c4cc(C)ccc4=NC3=O)c(O)n2-c2cccc(C)c2)c1 [AK-968/11780042]	-8.175
Cc1ccc(C(=O)CC2(O)C(=O)N(CCc3ccccc3)c3ccccc32)cc1 (stereo not shown) [AK-778/40897568]	18.54

same assay, conditions: compound at 2ug/ml, read-out: Averaged Enzymatic Inhibition @ 2ug/ml (%)

SMILES	inhibition at 2 µg/mL [%]
Cc1ccc(N2C(=O)C(=Cc3ccc(C)s3)C(=O)N(c3ccc(C)cc3C)C2=S)c(C)c1 [Compound M3]	91.5
Cc1ccc(C)c(N2CCN(C3CC(=O)N(c4ccc(N5C(=O)CC(N6CCN(c7cc(C)ccc7C)CC6)C5=O)cc4)C3=O)CC2)c1 (stereo not shown) [Compound A3]	65.8
O=C(CN1C(=O)C(=NNC(=O)c2ccc(NC(=O)c3ccccc3)cc2)c2ccccc21)Nc1ccccc1 [Compound A2]	50.4
